Laboratory results reported in US10513694B2, “Thienopyrrole compounds and uses thereof” (PROMEGA CORPORATION, priority 2015, dated 2019).

Biological target: NANOLUC® enzyme (Oplophorus gracilirostris, UniProt Q9GV45, A31E/A60N/A81I/F95D/I117V/K70R/L54V/L99Q/M102K/N193R/P142E/Q151K/Q38R/Q45L/V71I/Y165I)
Experiment: Inhibitor IC50 determination (NANOLUC enzyme, furimazine)
Assay type: biochemical
Conditions: IC50 (uM), 0.4 ng/ml NANOLUC enzyme, final furimazine 10 uM (at Km)
Procedure: The following example provides the IC50 values for the compounds disclosed herein. See Table 5 NANOLUC® enzyme was diluted to 0.4 ng/ml in CO2 independent media+10% FBS to make the detection reagent. A 3× dilution series of each inhibitor was then made in the detection reagent. A “no inhibitor” control was also made for each sample. 50 ul of each inhibitor dilution was mixed with 50 ul of NanoGlo buffer containing 20 uM furimazine. (Final furimazine concentration is 10 uM which is at Km.), and luminescence measured. Each sample was normalized to the “no inhibitor” control. The […] values were then determined using GraphPad Prism (log [inhibitor] vs. normalized response).

Chain of NANOLUC® enzyme (Q9GV45 28-196 with tags or gaps with the stated changes limits assumed): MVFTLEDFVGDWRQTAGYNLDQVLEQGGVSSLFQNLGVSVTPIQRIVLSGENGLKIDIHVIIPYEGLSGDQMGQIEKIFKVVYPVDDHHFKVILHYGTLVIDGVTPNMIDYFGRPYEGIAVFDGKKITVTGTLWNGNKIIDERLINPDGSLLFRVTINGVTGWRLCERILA

CCN(C(=O)Cn1c(C(=O)N[C@H]2CC[C@H](C(=O)NC3CCN(C(C)=O)CC3)CC2)cc2sccc21)c1cccc(C)c1 [JRW-0195, N-(trans-4-((1-acetylpiperidin-4-yl)carbamoyl)cyclohexyl)-4-(2-(ethyl(m-tolyl)amino)-2-oxoethyl)-4H-thieno[3,2-b]pyrrole-5-carboxamide]
IC50: 0.48 µM

CCN(C(=O)Cn1c(C(=O)N[C@H]2CC[C@H](C(=O)OC)CC2)cc2ccsc21)c1cccc(C)c1 [JRW-0463, Methyl trans-4-(6-(2-(ethyl(m-tolyl)amino)-2-oxoethyl)-6H-thieno[2,3-b]pyrrole-5-carboxamido)cyclohexane-1-carboxylate]
IC50: 0.71 µM

CCN(C(=O)Cn1c(C(=O)NC[C@H]2CC[C@H](C(=O)NCCCCCC(=O)O)CC2)cc2sccc21)c1cccc(C)c1 [JRW-0268, 6-(trans-4-((4-(2-(ethyl(m-tolyl)amino)-2-oxoethyl)-4H-thieno[3,2-b]pyrrole-5-carboxamido)methyl)cyclohexane-1-carboxamido)hexanoic acid]
IC50: 4.3 µM

CCc1cccc(N(CC)C(=O)Cn2c(C(=O)N[C@H]3CC[C@H](C(=O)NCCCCCCS(=O)(=O)O)CC3)cc3sccc32)c1 [JRW-0432, Sodium 6-(trans-4-(4-(2-(ethyl(3-ethylphenyl)amino)-2-oxoethyl)-4H-thieno[3,2-b]pyrrole-5-carboxamido)cyclohexane-1-carboxamido)hexane-1-sulfonate]
IC50: 0.0031 µM

CCN(C(=O)Cn1c(C(=O)NCCCCCCCC(=O)O)cc2sccc21)c1cccc(C)c1 [JRW-0198, 8-(4-(2-(ethyl(m-tolyl)amino)-2-oxoethyl)-4H-thieno[3,2-b]pyrrole-5-carboxamido)octanoic acid]
IC50: 1 µM

CCN(C(=O)Cn1c(C(=O)NC2CCN(C(=O)CCCCC(=O)O)CC2)cc2sccc21)c1cccc(C)c1 [JRW-0208, 6-(4-(4-(2-(ethyl(m-tolyl)amino)-2-oxoethyl)-4H-thieno[3,2-b]pyrrole-5-carboxamido)piperidin-1-yl)-6-oxohexanoic acid]
IC50: 0.82 µM

CCN(C(=O)Cn1c(C(=O)N[C@H]2CC[C@H](C(=O)NCCCCCC(=O)OC)CC2)cc2sccc21)c1cccc(C)c1 [JRW-0145, methyl 6-(trans-4-(4-(2-(ethyl(m-tolyl)amino)-2-oxoethyl)-4H-thieno[3,2-b]pyrrole-5-carboxamido)cyclohexane-1-carboxamido)hexanoate]
IC50: 0.12 µM

CCN(C(=O)Cn1c(C(=O)N[C@H]2CC[C@H](C(=O)OC)CC2)cc2sccc21)c1cccc(C(N)=O)c1 [JRW-0322, Methyl trans-4-(4-(2-((3-carbamoylphenyl)(ethyl)amino)-2-oxoethyl)-4H-thieno[3,2-b]pyrrole-5-carboxamido)cyclohexane-1-carboxylate]
IC50: 0.2 µM

CCN(C(=O)Cn1c(C(=O)N2CCCC2)cc2sccc21)c1cccc(C)c1 [JRW-0008, N-ethyl-2-(5-(pyrrolidine-1-carbonyl)-4H-thieno[3,2-b]pyrrol-4-yl)-N-(m-tolyl)acetamide]
IC50: 1.1 µM

CCN(C(=O)Cn1c(C(=O)N[C@H]2CC[C@H](C(=O)OC)CC2)cc2sccc21)c1cccc(OC)c1 [JRW-0327, Methyl trans-4-(4-(2-(ethyl(3-methoxyphenyl)amino)-2-oxoethyl)-4H-thieno[3,2-b]pyrrole-5-carboxamido)cyclohexane-1-carboxylate]
IC50: 0.11 µM

CCN(C(=O)Cn1c(C(=O)N[C@H]2CC[C@H](C(=O)N[C@H]3CC[C@H](C(=O)OC)CC3)CC2)cc2sccc21)c1cccc(C)c1 [JRW-0243, methyl-trans-4-(trans-4-(4-(2-(ethyl(m-tolyl)amino)-2-oxoethyl)-4H-thieno[3,2-b]pyrrole-5-carboxamido)cyclohexane-1-carboxamido)cyclohexane-1-carboxylate]
IC50: 0.21 µM

CCN(C(=O)Cn1c(C(=O)N[C@H]2CC[C@H](C(=O)O)CC2)cc2sccc21)c1cccc(C)c1 [JRW-0034, trans-4-(4-(2-(ethyl(m-tolyl)amino)-2-oxoethyl)-4H-thieno[3,2-b]pyrrole-5-carboxamido)cyclohexane-1-carboxylic acid]
IC50: 0.059 µM
